Results on one compound are retold here after US20250034194A1, “INHIBITORS OF ABNORMAL PHOSPHORYLATION AND TAU PROTEIN AGGREGATION” (UNIVERSITE DE PICARDIE JULES VERNE, priority 2021, published 2025).

Common to all, as to type: cell-based
One data set deals with SH-SY5Y. Kind of data set: Cytotoxicity study, MTT test. The settings on record: differentiated SH-SY5Y; 0.1 to 100 μg/mL; 24 hours. Here is the method:
In order to evaluate the level of toxicity of these molecules according to their concentration in the cellular environment, an MTT test (3-(4,5-dimethylthiazol-2-yl)-2,5-diphenyl tetrazolium bromide) is carried out (FIGS. 11 and 12) upstream of the phosphorylation tests in cellulo.
SH-SY5Y (ATCC-CRL-2266) are developed in Dulbecco's Modified Eagle Complete Medium (DMEM-GlutaMAX™, Life Technologies) with 10% foetal bovine serum (FBS) and 1% penicillin/streptomycin in an incubator at 37° C. with 5% CO2.
For this, the SH-SY5Y cells are cultured in a 6-well plate at a cell density of 200,000 cells/well and are differentiated using retinoic acid (10 μM, Sigma Aldrich) for 5 days. On day 6, the cells are brought into contact with LG2A molecules at different concentrations (0.1, 1, 10 or 100 μg/mL), in a final volume of 2 mL. After 24 hours, MTT (5 μg/mL; Sigma-Aldrich) is added to the cell medium for 2 hours at 37° C. Then the medium is removed and 200 μL of pure dimethylsulfoxide (DMSO, Sigma-Aldrich) are added to each well. The entire contents of each well are transferred to a 96-well plate and the absorbance is measured at 562 nm using the Infinite M1000 spectrofluorometer (Tecan).

Data set [1] relates to tau phosphorylation (S262 site) in SH-SY5Y cells. Put plainly: In cellulo tau phosphorylation test in the SH-SY5Y line (H2O2 stress induction). To be noted: 24 hours, then H2O2. As to the method:
The tau phosphorylation induction model on the SH-SY5Y cell line described in the Gly-CRRET laboratory article was used here (Sepulveda-Diaz et al., 2015).
In short, SH-SY5Y cells are seeded in 6-well plates and differentiated using retinoic acid (10 μM, Sigma Aldrich) for 5 days. On day 6, the cells are placed in the presence of the Mal16diS and Mal18diS molecules at different concentrations (1, 10 or 100 μg/mL), in a final volume of 2 mL simultaneously with a well not receiving molecules. After 24 hours, the molecules are removed and the stress inducer (H2O2, Sigma Aldrich) is added to the cell medium for 30 minutes. The cells are then rinsed with 1×PBS then lysed and recovered in RIPA buffer (Thermo Fisher). The protein extracts from the cells (10 μg) are then analysed by western blot according to the same procedure described above.
The tau phosphorylation site studied here is the S262 site (Thermo Fisher), normalized to the expression of the GAPDH protein (Sigma Aldrich). The bands are quantified using the Odyssey software of the LI-COR device allowing the p-tau/GAPDH ratio to be calculated for each of the conditions. The ratio obtained for each concentration of molecule is then expressed as a percentage of the ratio obtained for the control cells, i.e., not treated by the molecules. Thus a value less than 100% corresponds to protection provided by the molecules in this cellular model of tau phosphorylation induction.
The experiment was repeated at least 4 times for each molecule dose for the “Mal16diS” and “Mal18diS” molecules and at least twice for the “Cell16diS” and “Lac16diS” molecules. The mean and standard deviation of the replicates are shown in FIGS. 13 to 16; each of the values obtained for each dose is compared to that of the control without addition of molecule by means of a t-test. Statistical differences with p-value <0.05 and <0.001 are represented by “*” and “***” respectively.

Data set [2] concerns tau phosphorylation (S262 site) in cortical cells of rTg4510 mice (human tau P301L). Kind of data set: In cellulo tau phosphorylation test in cortical cells of rTg4510 mice. The settings on record: 24 h. From the text:
Cortical cells from rTg4510 mice mutated for human tau protein (P301 L) were used as a model of primary cells expressing a tauopathy without induction by an effector, unlike the previous cellular model (Santa Cruz et al., Science, 2005).
Cortical cells are extracted from mouse embryos expressing the P301L mutation at stage E16 and cultured in a 6-well plate. On day 14 (moderate tau phosphorylation) or day 18 (severe tau phosphorylation), cells extracted from the same embryo are placed in the presence of the Mal16diS molecule at different concentrations (0.1 or 1 μg/mL), in a final volume of 2 mL simultaneously with a well of cells from the same embryo not receiving molecules for 24 h. After 24 h of treatment with the molecules, the cells are rinsed with 1×PBS then lysed and recovered in RIPA buffer (Thermo Fischer). The protein extracts from the cells (10 μg) are then analysed by western blot according to the same procedure described above.
The tau phosphorylation site studied here is the S262 site (Thermo Fisher), normalized to the expression of total tau protein (K9JA, Dako). The bands are quantified using the Odyssey software of the LI-COR device allowing the p-tau/tau ratio to be calculated for each of the conditions. The ratio obtained for each concentration of molecule is then expressed as a percentage of the ratio obtained for cells not treated by the molecules. Thus a value less than 100% corresponds to protection provided by the molecules in this cellular model of expression of tau phosphorylation. The experiment was repeated at least three times for each dose of “Mal16diS” molecule. The mean and standard deviation of the replicates are shown in FIGS. 17 and 18; each of the values obtained for each dose is compared to that of the cells without addition of the molecule, with a t-test. Statistical differences with p-value <0.01 and <0.001 are represented by “**” and “***” respectively.

With `CCCCCCCCCCCCCCCCNC(=O)[C@H](O)[C@@H](O)[C@H](O[C@H]1OC(COS(=O)(=O)[O-])[C@@H](O)C(O)[C@@H]1O)[C@H](O)COS(=O)(=O)[O-].[Na+].[Na+]` (stereo partly drawn) [Mal16diS, N-Hexadecyl-6,6′-Di-O-Sulfo-D-Maltobioamide Disodium], in the data set on SH-SY5Y, the “cytotoxicity (MTT)” value is “not cytotoxic”. The “reduction in tau phosphorylation (S262, p-tau/GAPDH) compared to untreated cells” value in data set [1] (1 μg/mL) amounted to 30%; in data set [1] (10 μg/mL), 40%. Besides, the “reduction in tau phosphorylation (S262, p-tau/tau) compared to untreated cells” value in data set [2] (moderate phosphorylation (D14), 0.1 μg/mL) is reported as 48%; in data set [2] (moderate phosphorylation (D14), 1 μg/mL), 64%; in data set [2] (severe phosphorylation (D18), 0.1 μg/mL), 39%; in data set [2] (severe phosphorylation (D18), 1 μg/mL) it was 53%.
